US11384078B2, “5,6-fused-bicyclic compounds and compositions for the treatment of parasitic diseases” (NOVARTIS AG, priority 2017, dated 2022)
pEC50: −log10 of the molar value. Like-named read-outs stand apart in the source and are kept apart here.

Key:
Type in all cases: cell-based
[1] = tested on: L. donovani HU3 strain in mouse peritoneal macrophages; experiment: Assay for inhibition of parasitemia of Leishmania donovani in mouse macrophages (SYBR Green nuclei count, high-content imaging); conditions: read-out: L. donovani in Mouse Macrophages EC50
Text: Assay for Inhibition of Parasitemia of Leishmania donovani in Mouse Macrophages
The assay measures the increase in the parasite number in the assayed plate well using a DNA intercalating dye, SYBR Green I® dye (INVITROGEN) to stain Leishmania cell nuclei. L. donovani HU3 strain is propagated by infecting BALB/c mice through tail vein injection with 10^7 Leishmania parasites. Infected mice are allowed to develop infection during 9-11 weeks post-infection. During this time, the parasites accumulate in the infected mouse spleens to large numbers, and the infected mice serve as the source of parasites for the in vitro measurement of compound efficacies. To assay a compound for anti-leishmanial activity, peritoneal macrophages isolated from non-infected BALB/c mice are seeded into 384-well plates at density 2×10^4 macrophages per well in […] of medium (RPM11640, 10% fetal serum albumin, 10 mM HEPES, 1 mM sodium pyruvate, 1% Pen/Strep). Subsequently, the seeded plates are placed into an incubator set to maintain 37° C. temperature and atmosphere with 5% CO2.
The next day, Leishmania parasites are isolated from the spleens of mice infected for 9-11 weeks and 4×10^5 isolated parasites in […] of the above media are added to each plate well. Plates are then returned into incubators and infection is allowed to proceed for 24 hours. After the infection of macrophages is completed, […] of compounds of the invention in the above medium, which also contains 5% DMSO, are added to plate wells containing infected macrophages. At the same time control compounds (miltefosine and amphotericin B) and DMSO are added to plates to serve as the positive and negative controls, respectively. After the compound addition, the plates are returned into incubator and cells infected with parasites are cultured for 5 days. At the end of cultivation, […] of 8% paraformaldehyde is added to plate wells and incubated for 15 min at room temperature. Following the incubation, the paraformaldehyde from plate wells is aspirated, and […] of PBS containing 0.2% Triton X-100 is added to wells. After 15 min incubation, the solution is aspirated from wells again, and replaced with Sybr® Green Dye solution in PBS (1:125,000 dilution). Infected cells are imaged with Evotec Opera high-content microscope, and the number of parasites in well is determined by counting parasite nuclei visualized by staining with Sybr® Green dye.

[2] = tested on: Leishmania donovani axenic amastigote; experiment: In vitro assay for growth inhibition of Leishmania donovani axenic amastigote (Cell TiterGlo luminescence); conditions: L. donovani axenic amastigotes in vitro, read-out: L. donovani amastigotes EC50
How it was run: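 Axenic L. donovani amastigotes (9600/well) grown at 37 °C, 5% CO2 in supplemented RPMI 1640, pH 5.5, with compound added from DMSO. After two days, viability read by CellTiter-Glo luminescence against DMSO and control-compound wells.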

[3] = tested on: Trypanosoma brucei brucei (Lister 427) strain; experiment: Assay for growth inhibition against Trypanosoma brucei brucei (Cell TiterGlo ATP luminescence); conditions: T. brucei brucei (Lister 427), read-out: T. Brucei (HAT) EC50
How it was run: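 T. b. brucei Lister 427 grown in HMI-9 with 10% FBS and 10% serum plus, seeded at 10,000 parasites/mL with 10-point threefold compound dilutions in duplicate, 37 °C for 2 days. Viability read as ATP luminescence 30 min after Cell TiterGlo; IC50 versus untreated controls.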

[4] = tested on: Trypanosoma cruzi amastigotes cultured in 3T3 fibroblast cells; experiment: Assay for growth inhibition of kinetoplastid parasite Trypanosoma cruzi (beta-galactosidase Tulahuen strain, CPRG readout); conditions: T. cruzi amastigotes in 3T3 fibroblast cells, read-out: Buckner infectious T. cruzi EC50
How it was run: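 3T3 fibroblasts (1,000 cells/well) plated overnight, treated with compound in DMSO, then infected with 10,000 Lac-Z-expressing Tulahuen trypomastigotes. After 6 days, 0.6 mM CPRG with 0.6% NP-40 added for 2 h at room temperature; absorbance gives relative intracellular amastigote numbers. Benznidazole and nifurtimox serve as positive controls.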

[5] = Leishmania donovani, Peritoneal macrophage, L. donovani in mouse peritoneal macrophages
[6] = L. donovani in mouse peritoneal macrophages

SMILES | pEC50 [1, 5] | pEC50 ([2]; Leishmania donovani) | pEC50 ([3]; Trypanosoma brucei) | pEC50 ([4]; Trypanosoma cruzi, Fibroblast) | pEC50 [1, 6] | pEC50 [3] | pEC50 [2] | pEC50 [4] | pEC50 ([1]; Leishmania donovani, Peritoneal macrophage)
O=C(Nc1ccc(F)c(-n2cc3cc(N4CC5(CC5)C4)cnc3n2)c1)[C@H]1C[C@@H]1F (racemic) [Compound 272, (1R,2S)-N-[3-(5-{5-azaspiro[2.3]hexan-5-yl}-2H-pyrazolo[3,4-b]pyridin-2-yl]-4-fluorophenyl}-2-fluorocyclopropane-1-carboxamide] | 7.07 | 6.88 | 6.45 | 6.94 | – | – | – | – | –
O=C(Nc1ccc(F)c(-n2cc3cc(-c4ccccn4)cnc3n2)c1)[C@@H]1C[C@@H]1F (racemic) [Compound 349, (1S,2S)-2-fluoro-N-{4-fluoro-3-[5-(pyridin-2-yl)-2H-pyrazolo[3,4-b]pyridin-2-yl]phenyl}cyclopropane-1-carboxamide] | 6.99 | 7.02 | 7.37 | 7.07 | – | – | – | – | –
O=C(Nc1ccc(F)c(-n2cc3cc(-c4ccccn4)cnc3n2)c1)[C@@H]1C[C@H]1F (single isomer, unassigned) [Compound 256] | 7.42 | 7.96 | 7.57 | 8.30 | – | – | – | – | –
O=C(Nc1ccc(F)c(-n2cc3cc(N4CC(F)(F)C4)cnc3n2)c1)[C@@H]1C[C@H]1F (single isomer, unassigned) [Compound 268, (1 S,2R)—N-(3-(5-(3,3-difluoroazetidin-1-yl)-2H-pyrazolo[3,4-b]pyridin-2-yl)-4-fluorophenyl)-2-fluorocyclopropane-1-carboxamide or (1R,2S)—N-(3-(5-(3,3-difluoroazetidin-1-yl)-2H-pyrazolo[3,4-b]pyridin-2-yl)-4-fluorophenyl)-2-fluorocyclopropane-1-carboxamide] | – | 7.08 | – | 7.09 | 6.56 | 6.94 | – | – | –
O=C(Nc1ccc(F)c(-n2cc3cc(-c4ccccn4)cnc3n2)c1)[C@H]1C[C@@H]1F (single isomer, unassigned) [Compound 269, (1 S,2R)-2-fluoro-N-(4-fluoro-3-(5-(pyridin-2-yl)-2H-pyrazolo[3,4-b]pyridin-2-yl)phenyl)cyclopropane-1-carboxamide or (1R,2S)-2-fluoro-N-(4-fluoro-3-(5-(pyridin-2-yl)-2H-pyrazolo[3,4-b]pyridin-2-yl)phenyl)cyclopropane-1-carboxamide] | – | 7.72 | – | 8.05 | 7.49 | 7.70 | – | – | –
O=C(Nc1ccc(F)c(-n2cc3cc(N4CC(F)(F)C4)cnc3n2)c1)[C@@H]1C[C@H]1F (single isomer, unassigned) [Compound 271, (1 S,2R)—N-(3-(5-(3,3-difluoroazetidin-1-yl)-2H-pyrazolo[3,4-b]pyridin-2-yl)-4-fluorophenyl)-2-fluorocyclopropane-1-carboxamide or (1R,2S)—N-(3-(5-(3,3-difluoroazetidin-1-yl)-2H-pyrazolo[3,4-b]pyridin-2-yl)-4-fluorophenyl)-2-fluorocyclopropane-1-carboxamide] | – | – | – | – | 8.52 | 6.41 | 6.92 | 6.84 | –
O=C(Nc1ccc(F)c(-n2cc3cc(-c4ccccn4)cnc3n2)c1)[C@H]1C[C@@H]1F (single isomer, unassigned) [Compound 273, (1 S,2R)-2-fluoro-N-(4-fluoro-3-(5-(pyridin-2-yl)-2H-pyrazolo[3,4-b]pyridin-2-yl)phenyl)cyclopropane-1-carboxamide or (1R,2S)-2-fluoro-N-(4-fluoro-3-(5-(pyridin-2-yl)-2H-pyrazolo[3,4-b]pyridin-2-yl)phenyl)cyclopropane-1-carboxamide] | – | – | – | – | 8.22 | 7.35 | 7.57 | 7.77 | –
CCC(C)c1cnc2nn(-c3cc(NC(=O)N4CC(F)(F)C4)ccc3F)cc2c1 (centres unmarked) [Compound 36, N-{3-[5-(butan-2-yl)-2H-pyrazolo[3,4-b]pyridin-2-yl]-4-fluorophenyl}-3,3-difluoroazetidine-1-carboxamide] | 6.60 | 6.68 | – | – | – | – | – | – | –
O=C(Nc1ccc(F)c(-n2cc3cc(C4CCCCC4)cnc3n2)c1)N1CC[C@@H](F)C1 [Compound 44, (3R)-N-(3-{5-cyclohexyl-2H-pyrazolo[3,4-b]pyridin-2-yl}-4-fluorophenyl)-3-fluoropyrrolidine-1-carboxamide] | 7.49 | 7.54 | – | 7.66 | – | – | – | – | –
CC(C)(C)c1cnc2nn(-c3cc(NC(=O)N4CC[C@@H](F)C4)ccc3F)cc2c1 [Compound 47, (3R)-N-(3-{5-tert-butyl-2H-pyrazolo[3,4-b]pyridin-2-yl}-4-fluorophenyl)-3-fluoropyrrolidine-1-carboxamide] | 7.57 | 7.64 | – | 8.55 | – | – | – | – | –
O=C(Nc1ccc(F)c(-n2cc3cc(C4CC4)cnc3n2)c1)c1ccco1 [Compound 55, N-(3-{5-cyclopropyl-2H-pyrazolo[3,4-b]pyridin-2-yl}-4-fluorophenyl)furan-2-carboxamide] | 7.46 | 7.24 | – | 8.20 | – | – | – | – | –
O=C(Nc1ccc(F)c(-n2cc3cc(C4CCCC4)cnc3n2)c1)c1ccco1 [Compound 56, N-(3-{5-cyclopentyl-2H-pyrazolo[3,4-b]pyridin-2-yl}-4-fluorophenyl)furan-2-carboxamide] | 6.26 | 6.62 | – | – | – | – | – | – | –
CC(C)CCc1cnc2nn(-c3cc(NC(=O)c4ccco4)ccc3F)cc2c1 [Compound 63, N-{4-fluoro-3-[5-(3-methylbutyl)-2H-pyrazolo[3,4-b]pyridin-2-yl]phenyl}furan-2-carboxamide] | 7.05 | 7.05 | – | 7.85 | – | – | – | – | –
CN(C)C(=O)Nc1ccc(F)c(-n2cc3cc(N(C)C)cnc3n2)c1 [Compound 143, 1-{3-[5-(dimethylamino)-2H-pyrazolo[3,4-b]pyridin-2-yl]-4-fluorophenyl}-3,3-dimethylurea] | 6.96 | 6.82 | > 7.64 | – | – | – | – | – | –
O=C(Nc1ccc(F)c(-n2cc3cc(CC(F)(F)F)cnc3n2)c1)c1ccco1 [Compound 176, N-{4-fluoro-3-[5-(2,2,2-trifluoroethyl)-2H-pyrazolo[3,4-b]pyridin-2-yl]phenyl}furan-2-carboxamide] | 7.16 | 7.15 | – | 8.02 | – | – | – | – | –
[2H]C([2H])([2H])N(c1cnc2nn(-c3cc(NC(=O)N4CC(F)C4)ccc3F)cc2c1)C([2H])([2H])[2H] [Compound 314, N-(3-[5-[bis(^2H3)methylamino]-2H-pyrazolo[3,4-b]pyridin-2-yl]-4-fluorophenyl)-3-fluoroazetidine-1-carboxamide] | 8.22 | 6.62 | – | 8.30 | – | – | – | – | –
O=C(Nc1ccc(F)c(-n2cc3cc(N4CC5(CC5)C4)cnc3n2)c1)N1CCCC1 [Compound 337, N-[3-(5-{5-azaspiro[2.3]hexan-5-yl}-2H-pyrazolo[3,4-b]pyridin-2-yl)-4-fluorophenyl]pyrrolidine-1-carboxamide] | 7.89 | – | 8.15 | 8.40 | – | – | – | – | –
Cc1nc(C)c(C(=O)Nc2ccc(F)c(-n3cc4cc(-c5ccccc5)cnc4n3)c2)o1 [Compound 352, N-(4-fluoro-3-(5-phenyl-2H-pyrazolo[3,4-b]pyridin-2-yl)phenyl)-2,4-dimethyloxazole-5-carboxamide] | 7.51 | 7.77 | 7.41 | – | – | – | – | – | –
O=C(Nc1ccc(F)c(-n2cc3cc(-c4ccccc4)cnc3n2)c1)N1CC(F)(F)C1 [Compound 353, 3,3-difluoro-N-(4-fluoro-3-(5-phenyl-2H-pyrazolo[3,4-b]pyridin-2-yl)phenyl)azetidine-1-carboxamide] | – | 8.30 | 7.89 | – | – | – | – | – | 8.40
